Source: patent US20170307595A1, “METHODS AND DEVICES TO STUDY METABOLISM” (The General Hospital Corporation, priority 2014, published 2017)

Assays:
[1] = system: rat primary hepatocytes; conditions: 24 h, 100 μM
Text: (§2) Tegafur, 5-FU, and Uracil concentrations in media were quantified using an LC/MS-MS 3200 QTRAP Hybrid Triple Quadrupole Linear Ion Trap mass spectrometer (AB SCIEX, Foster City, Calif.) coupled to a 1200 Series Binary LC System (Agilent Technologies, Santa Clara, Calif.). A standard solution of each analyte was directly infused into the mass spectrometer, which was operating under negative mode with the following settings: Curtain gas (CUR) at 30.0, collision gas (CAD) at 5, IonSpray Voltage (IS) at −4500.0, the temperature (TEM) of the turbo gas in the TurbolonSpray at 400° C. and both Ion Source Gases (GS1 and GS2) at 60.0. Using Analyst software (Version 1.5, AB Sciex), a ‘Compound Optimization’ routine was performed to identify multiple reaction monitoring (MRM) precursor/product ion transition pairs for each analyte that maximizes peak intensity. The tunable MS-specific parameters for the optimization were the declustering potential (DP), the entrance potential (EP), the collision energy (CE), as well as the collision cell exit potential (CXP).
(§3) MS data acquisition for each sample was achieved by injecting 10 μL, of media through a liquid chromatographic (LC) separation phase followed by simultaneous detection of all three MRM transitions, each with a dwell time of 500 ms. The LC method utilized a Synergy Hydro-RP (reverse phase) column (150 mm×2 mm inner 4 μm 80 Å particles; Phenomenex, Torrance, Calif.), which was kept at ambient temperature. The aqueous mobile phase A was HPLC grade water with 0.1% formic acid and the organic phase B was HPLC grade methanol with 0.1% formic acid. The elution gradient was set as: 0 minutes-3% B, 3 minutes-3% B, 12 minutes-95% B, 15 minutes-95% B, 18 minutes-3% B, and 25 minutes-3% B.

[2] = system: MCF-7 cells; assay: MTT toxicity experiment in 96-well plates, MCF-7; assay type: cell-based, human
Procedure: (§1) Toxicity experiments were performed in 96-well plates. Briefly, 96-well plates were coated with 50 μg/mL fibronectin for 1 hour at 37° C. Freshly isolated rat hepatocytes and MCF-7 cells were seeded at 50,000 cells/well in 100 μL of media and incubated overnight at 37° C., 10% CO2. Hepatocytes were seeded in hepatocyte maintenance media while MCF-7 cells were seeded in DMEM. Media was replaced and cells were exposed to tegafur or 5-FU+Uracil in Williams E media at 37° C., 10% CO2. Uracil concentration was maintained at 100 μM, while 5-FU concentration varied. After 24 hours of exposure, media were removed and cells were incubated with 0.5 mg/mL MTT reagent for 2 hours. Media were removed from the wells and 100 μL DMSO was added to each well and mixed on a shaker for 10 minutes. The absorbance was measured at 570 nm and IC-50 values were obtained using Sigmaplot software with a sigmoidal 4-parameter fit.

[3] = system: MCF-7 cells co-cultured with rat primary hepatocytes; assay: LDH release, hepatocyte/MCF-7 co-culture in two-chamber microfluidic device; assay type: cell-based, human; conditions: MCF-7 exposure to 5-FU produced by metabolic conversion of tegafur, 24 hours
Text: Rat primary hepatocytes and human breast cancer cells (MCF-7) were co-cultured in the device of Example 1 to create a hepatocyte-cancer model for drug screening. In the two-chamber device, intercellular communication between hepatocytes and cancer cells is achieved without any flow within the devices. In the two-chamber device, both cell types were independently seeded into their respective chambers in the device using inlet ports on fibronectin-coated devices. Rat primary hepatocytes and MCF-7 cells were seeded into the first (bottom) and second (top) chambers, respectively. Control monocultures were seeded in a single chamber device. The co-culture model created provides a microenvironment with cells cultured in close proximity and relatively small volume. Co-culture of hepatocytes and MCF-7 cells was compared in 12-well plates against a two-chamber device. […]
LDH in the supernatant was evaluated using CytoTox 96 Non-Radioactive Cytotoxicity Assay (Promega Cat No. G1780). […]
At the end of incubation, 50 μL stop solution was added and absorbance measured at 490 nm.
LDH from culture supernatant is normalized as LDH from cultures exposed to 100 μM tegafur+100 μM uracil to LDH from cultures exposed to vehicle control. […] Percentage cell death was calculated as LDH in media/LDH in 10,000 MCF-7 cells.

[4] = system: Rat hepatocytes; assay: MTT toxicity experiment in 96-well plates, rat hepatocytes; assay type: cell-based
Procedure: as §1

[5] = cited from earlier work; for Cmax: oral uptake of tegafur-uracil (UFT)
[6] = system: rat primary hepatocytes; assay: Mass spectrometry of drug metabolism in single chamber device with hepatocytes alone; conditions: from tegafur+uracil
Text: as §2, §3

[7] = 100 μM, inferred from IC-50 values

Row | decrease of concentration within the media [1] [%] | SMILES | toxicity to MCF-7 cells at 100 μM [2, 7] | IC50 ([2]; Homo sapiens, MCF7, MCF-7, 24 hours exposure, MTT, uracil 100 μM where present) [µM] | MCF-7 cell death (LDH in media/LDH in 10,000 MCF-7 cells) [3] [%] | toxicity to hepatocytes at 100 μM [4, 7] | IC50 ([4]; Hepatocyte, rat hepatocytes, 24 hours exposure, MTT, uracil 100 μM where present) [µM] | Cmax ([5]; human) [µM] | temporal profile of 5-FU production [6] | half-life in circulation in the human body [5] [min] | fraction of 5-FU produced cleared by DPD activity ([5]; human) [%]
1 | ~75 | O=c1cc[nH]c(=O)[nH]1 [uracil, Uracil] | – | – | – | – | – | – | – | – | –
2 | ~75 | O=c1[nH]c(=O)n(C2CCCO2)cc1F (stereo not drawn) [Tegafur] | not toxic | 340 | 12.4±1.6 | not toxic | > 1200 | 31.2 | – | – | –
3 | – | O=c1[nH]cc(F)c(=O)[nH]1 [5-FU, 5-fluorouracil] | – | – | – | – | – | 0.847 | increase in production up to 8 hours and a subsequent decrease | 30 | ~80
